{"source": "paper PMC9862743", "about": "(Pharmaceuticals, 2022)", "key": {"[1]": {"molecular_target": "T1, HER2 (Homo sapiens, UniProt P04626)", "T1 construct": "purchased Reaction Biology Corp", "experiment": "HotSpot in vitro kinase assay, HER2", "format": "biochemical", "conditions": "single dose 10 µM compound, 10 µM ATP"}, "[2]": {"molecular_target": "T2, EGFR (Homo sapiens, UniProt P00533)", "T2 construct": "purchased Reaction Biology Corp", "T2 sequence (P00533 25-1210)": "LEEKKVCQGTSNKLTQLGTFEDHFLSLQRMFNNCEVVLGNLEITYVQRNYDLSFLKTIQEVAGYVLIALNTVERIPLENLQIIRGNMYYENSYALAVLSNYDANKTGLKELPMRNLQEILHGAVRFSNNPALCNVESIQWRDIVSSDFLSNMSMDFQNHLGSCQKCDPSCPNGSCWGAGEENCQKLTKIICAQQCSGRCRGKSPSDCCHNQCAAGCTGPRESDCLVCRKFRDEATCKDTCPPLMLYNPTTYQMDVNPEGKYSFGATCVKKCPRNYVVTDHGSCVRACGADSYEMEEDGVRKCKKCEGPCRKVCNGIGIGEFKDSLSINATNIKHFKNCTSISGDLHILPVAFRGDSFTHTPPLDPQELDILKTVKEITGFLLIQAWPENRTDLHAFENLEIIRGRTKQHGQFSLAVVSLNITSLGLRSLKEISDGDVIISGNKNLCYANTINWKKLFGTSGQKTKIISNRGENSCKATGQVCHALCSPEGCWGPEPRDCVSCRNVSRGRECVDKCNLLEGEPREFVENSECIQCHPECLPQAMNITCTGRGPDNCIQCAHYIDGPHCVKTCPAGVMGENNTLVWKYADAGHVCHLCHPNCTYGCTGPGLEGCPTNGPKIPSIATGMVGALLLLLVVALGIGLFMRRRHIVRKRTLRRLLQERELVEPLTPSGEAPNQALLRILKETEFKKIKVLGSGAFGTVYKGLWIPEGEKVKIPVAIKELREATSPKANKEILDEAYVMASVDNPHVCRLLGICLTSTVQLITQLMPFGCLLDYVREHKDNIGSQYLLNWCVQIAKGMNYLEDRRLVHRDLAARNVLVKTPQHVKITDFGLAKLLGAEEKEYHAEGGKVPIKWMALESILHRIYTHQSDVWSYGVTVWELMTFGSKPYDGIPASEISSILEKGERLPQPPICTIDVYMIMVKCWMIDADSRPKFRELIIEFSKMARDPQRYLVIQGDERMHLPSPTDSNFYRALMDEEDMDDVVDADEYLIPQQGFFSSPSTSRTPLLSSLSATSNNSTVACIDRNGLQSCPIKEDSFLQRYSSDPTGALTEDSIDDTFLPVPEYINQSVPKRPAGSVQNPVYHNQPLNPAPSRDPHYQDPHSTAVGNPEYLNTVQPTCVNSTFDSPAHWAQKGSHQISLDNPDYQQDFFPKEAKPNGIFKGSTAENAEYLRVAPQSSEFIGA", "experiment": "HotSpot in vitro kinase assay, EGFR", "format": "biochemical", "conditions": "for inhibition at 10 µM: single dose 10 µM compound, 10 µM ATP"}, "[3]": {"molecular_target": "T3, FGFR1 (Homo sapiens, UniProt P11362)", "T3 construct": "purchased Reaction Biology Corp", "T3 sequence (P11362 22-822)": "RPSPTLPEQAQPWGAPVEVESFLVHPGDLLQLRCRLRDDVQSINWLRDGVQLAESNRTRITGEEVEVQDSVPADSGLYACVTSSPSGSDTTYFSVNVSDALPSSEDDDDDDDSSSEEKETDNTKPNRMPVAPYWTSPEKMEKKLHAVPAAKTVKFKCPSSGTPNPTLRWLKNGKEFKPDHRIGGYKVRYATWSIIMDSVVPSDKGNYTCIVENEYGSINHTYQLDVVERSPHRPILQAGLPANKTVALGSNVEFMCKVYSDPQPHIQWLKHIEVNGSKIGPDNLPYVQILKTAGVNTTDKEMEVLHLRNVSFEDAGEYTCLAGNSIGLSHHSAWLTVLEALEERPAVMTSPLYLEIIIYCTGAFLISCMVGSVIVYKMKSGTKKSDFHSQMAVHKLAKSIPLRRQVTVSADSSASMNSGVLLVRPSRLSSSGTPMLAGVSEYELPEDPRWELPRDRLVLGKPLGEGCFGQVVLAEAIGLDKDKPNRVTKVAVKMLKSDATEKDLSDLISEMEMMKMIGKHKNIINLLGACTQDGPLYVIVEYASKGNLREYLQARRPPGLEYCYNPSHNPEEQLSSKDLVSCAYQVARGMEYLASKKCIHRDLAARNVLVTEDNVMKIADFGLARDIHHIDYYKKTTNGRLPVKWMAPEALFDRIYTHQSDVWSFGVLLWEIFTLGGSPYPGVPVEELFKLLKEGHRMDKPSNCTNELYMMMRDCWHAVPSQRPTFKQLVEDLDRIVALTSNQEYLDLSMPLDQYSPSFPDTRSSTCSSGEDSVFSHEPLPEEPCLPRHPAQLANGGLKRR", "experiment": "Kinase selectivity panel, FGFR1", "format": "biochemical", "conditions": "single dose 10 µM"}, "[4]": {"molecular_target": "T4, CDK2/cyclin A (Homo sapiens, UniProt P24941)", "T4 construct": "purchased Reaction Biology Corp", "experiment": "Kinase selectivity panel, CDK2/cyclin A", "format": "biochemical", "conditions": "single dose 10 µM"}, "[5]": {"molecular_target": "T5, P38a/MAPK14 (Homo sapiens, UniProt Q16539)", "T5 construct": "purchased Reaction Biology Corp", "T5 sequence (Q16539 whole entry)": "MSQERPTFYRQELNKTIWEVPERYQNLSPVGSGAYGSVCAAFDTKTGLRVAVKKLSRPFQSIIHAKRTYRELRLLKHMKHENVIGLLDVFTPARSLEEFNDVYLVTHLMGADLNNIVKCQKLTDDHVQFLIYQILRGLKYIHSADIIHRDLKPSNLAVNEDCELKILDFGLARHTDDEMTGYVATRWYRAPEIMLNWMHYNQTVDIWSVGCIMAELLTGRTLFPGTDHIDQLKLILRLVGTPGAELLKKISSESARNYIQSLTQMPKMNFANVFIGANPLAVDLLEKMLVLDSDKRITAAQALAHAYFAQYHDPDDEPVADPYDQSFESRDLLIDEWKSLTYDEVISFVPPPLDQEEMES", "experiment": "Kinase selectivity panel, P38a/MAPK14", "format": "biochemical", "conditions": "single dose 10 µM"}, "[6]": {"molecular_target": "T6, KDR/VEGFR2 (Homo sapiens, UniProt P35968)", "T6 construct": "purchased Reaction Biology Corp", "T6 sequence (P35968 20-1356)": "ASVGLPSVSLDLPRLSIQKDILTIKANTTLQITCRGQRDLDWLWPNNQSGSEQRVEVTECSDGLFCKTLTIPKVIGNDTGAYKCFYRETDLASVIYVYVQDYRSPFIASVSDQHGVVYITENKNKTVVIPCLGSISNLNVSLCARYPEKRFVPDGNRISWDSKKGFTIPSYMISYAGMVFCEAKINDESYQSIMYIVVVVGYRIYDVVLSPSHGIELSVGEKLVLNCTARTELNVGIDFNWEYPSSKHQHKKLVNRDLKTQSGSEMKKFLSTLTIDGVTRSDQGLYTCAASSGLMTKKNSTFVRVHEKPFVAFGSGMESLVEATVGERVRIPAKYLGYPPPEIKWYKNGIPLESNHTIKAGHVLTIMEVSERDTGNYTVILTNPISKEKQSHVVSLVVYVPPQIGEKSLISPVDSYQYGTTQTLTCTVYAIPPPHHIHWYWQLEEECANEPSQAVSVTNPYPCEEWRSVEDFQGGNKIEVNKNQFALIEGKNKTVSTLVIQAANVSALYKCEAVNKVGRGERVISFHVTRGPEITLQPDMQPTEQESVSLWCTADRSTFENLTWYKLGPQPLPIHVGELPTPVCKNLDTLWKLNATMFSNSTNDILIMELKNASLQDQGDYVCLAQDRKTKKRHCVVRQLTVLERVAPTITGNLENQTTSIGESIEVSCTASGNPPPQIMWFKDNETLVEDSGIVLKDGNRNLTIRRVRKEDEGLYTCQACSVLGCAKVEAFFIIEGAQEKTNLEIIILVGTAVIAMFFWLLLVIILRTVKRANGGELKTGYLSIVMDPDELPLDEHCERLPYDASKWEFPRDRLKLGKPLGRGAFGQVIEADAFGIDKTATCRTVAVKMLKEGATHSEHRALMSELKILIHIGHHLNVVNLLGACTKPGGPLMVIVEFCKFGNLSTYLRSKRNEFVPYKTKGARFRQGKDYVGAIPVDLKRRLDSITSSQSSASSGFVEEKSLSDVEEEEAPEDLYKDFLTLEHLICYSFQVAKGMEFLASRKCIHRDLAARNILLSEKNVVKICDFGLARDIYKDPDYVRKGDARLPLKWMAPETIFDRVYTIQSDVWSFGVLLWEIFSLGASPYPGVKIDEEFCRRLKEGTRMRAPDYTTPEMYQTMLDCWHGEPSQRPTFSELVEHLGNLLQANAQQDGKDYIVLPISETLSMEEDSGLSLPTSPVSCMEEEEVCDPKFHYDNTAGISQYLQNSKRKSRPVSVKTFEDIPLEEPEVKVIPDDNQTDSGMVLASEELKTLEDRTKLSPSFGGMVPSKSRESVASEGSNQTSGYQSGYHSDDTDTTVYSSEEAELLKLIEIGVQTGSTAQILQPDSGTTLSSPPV", "experiment": "Kinase selectivity panel, KDR/VEGFR2", "format": "biochemical", "conditions": "single dose 10 µM"}, "[7]": {"molecular_target": "T7, c-MET (Homo sapiens, UniProt P08581)", "T7 construct": "purchased Reaction Biology Corp", "T7 sequence (P08581 25-1390)": "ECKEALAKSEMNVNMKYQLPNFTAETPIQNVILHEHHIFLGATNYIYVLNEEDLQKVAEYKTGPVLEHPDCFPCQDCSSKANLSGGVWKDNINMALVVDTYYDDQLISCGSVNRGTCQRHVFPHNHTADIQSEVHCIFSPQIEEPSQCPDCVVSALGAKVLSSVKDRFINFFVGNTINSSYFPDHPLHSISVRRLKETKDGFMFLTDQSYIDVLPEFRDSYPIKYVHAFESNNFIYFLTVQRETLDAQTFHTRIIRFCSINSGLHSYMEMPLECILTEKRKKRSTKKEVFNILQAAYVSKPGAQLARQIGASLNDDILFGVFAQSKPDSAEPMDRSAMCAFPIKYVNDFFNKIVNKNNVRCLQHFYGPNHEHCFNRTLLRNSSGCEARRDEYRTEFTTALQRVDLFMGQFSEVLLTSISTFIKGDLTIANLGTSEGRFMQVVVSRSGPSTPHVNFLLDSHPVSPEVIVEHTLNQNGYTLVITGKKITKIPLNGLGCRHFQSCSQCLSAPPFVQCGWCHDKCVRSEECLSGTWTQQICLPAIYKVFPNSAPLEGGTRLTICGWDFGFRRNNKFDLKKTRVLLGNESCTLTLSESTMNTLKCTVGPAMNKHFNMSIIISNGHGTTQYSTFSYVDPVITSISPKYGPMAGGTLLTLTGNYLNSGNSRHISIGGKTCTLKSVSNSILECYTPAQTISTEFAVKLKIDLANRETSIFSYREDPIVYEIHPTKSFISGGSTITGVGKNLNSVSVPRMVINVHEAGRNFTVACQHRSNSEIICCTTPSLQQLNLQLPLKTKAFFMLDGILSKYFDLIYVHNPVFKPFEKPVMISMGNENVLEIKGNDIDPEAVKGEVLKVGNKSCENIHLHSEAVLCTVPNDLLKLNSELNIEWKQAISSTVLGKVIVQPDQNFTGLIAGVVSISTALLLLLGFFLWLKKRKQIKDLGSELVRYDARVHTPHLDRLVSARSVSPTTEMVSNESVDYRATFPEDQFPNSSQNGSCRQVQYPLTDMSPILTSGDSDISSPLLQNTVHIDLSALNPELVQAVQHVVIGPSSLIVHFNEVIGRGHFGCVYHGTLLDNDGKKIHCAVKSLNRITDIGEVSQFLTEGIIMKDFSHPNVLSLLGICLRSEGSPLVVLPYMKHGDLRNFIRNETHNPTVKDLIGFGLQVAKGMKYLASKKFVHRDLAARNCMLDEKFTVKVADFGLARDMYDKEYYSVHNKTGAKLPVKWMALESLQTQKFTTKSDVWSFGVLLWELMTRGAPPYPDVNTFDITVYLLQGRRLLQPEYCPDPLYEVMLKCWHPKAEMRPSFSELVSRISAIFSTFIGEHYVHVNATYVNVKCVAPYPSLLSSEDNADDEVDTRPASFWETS", "experiment": "Kinase selectivity panel, c-MET", "format": "biochemical", "conditions": "single dose 10 µM"}}, "note": "“Also recorded” adds a separate entry of the source."}
{"smiles": "COc1cc2ncnc(Nc3ccc(OCc4ccccn4)c(Cl)c3)c2cc1OCCCCCCn1ccnc1[N+](=O)[O-]", "note": "[Compound 6l, N-(3-Chloro-4-(pyridin-2-ylmethoxy)phenyl)-7-methoxy-6-((6-(2-nitro-1H-imidazol-1-yl)hexyl)oxy)quinazolin-4-amine]", "values": [{"measurement": "inhibition at 10 µM", "setting": "[1]", "value": 89, "unit": "%"}, {"measurement": "inhibition at 10 µM", "setting": "[2]", "value": 98.6, "unit": "%"}, {"measurement": "melting point", "value": "191 to 192", "unit": "°C"}]}
{"smiles": "COc1cc2ncnc(Nc3ccc(C#N)cc3)c2cc1OCCCn1ccnc1[N+](=O)[O-]", "note": "[Compound 6e, 4-((7-Methoxy-6-(3-(2-nitro-1H-imidazol-1-yl)propoxy)quinazolin-4-yl)amino)benzonitrile]", "values": [{"measurement": "inhibition at 10 µM", "setting": "[1]", "value": 8.78, "unit": "%"}, {"measurement": "inhibition at 10 µM", "setting": "[2]", "value": 67.3, "unit": "%"}, {"measurement": "melting point", "value": "245 to 246", "unit": "°C"}]}
{"smiles": "COc1cc2ncnc(Nc3ccc(OCc4ccccn4)c(Cl)c3)c2cc1OCCCCn1ccnc1[N+](=O)[O-]", "note": "[Compound 6j, N-(3-Chloro-4-(pyridin-2-ylmethoxy)phenyl)-7-methoxy-6-(4-(2-nitro-1H-imidazol-1-yl)butoxy)quinazolin-4-amine]", "values": [{"measurement": "% Kinase Inhibition at 10 µM FGFR1", "setting": "[3]", "value": "almost no inhibitory activity; also recorded: poor to weak inhibitory activity"}, {"measurement": "inhibition at 10 µM", "setting": "[3]", "value": 13.9, "unit": "%"}, {"measurement": "inhibition at 10 µM", "setting": "[1]", "value": 96.7, "unit": "%"}, {"measurement": "% Kinase Inhibition at 10 µM CDK2/cyclin A", "setting": "[4]", "value": "almost no inhibitory activity; also recorded: poor to weak inhibitory activity"}, {"measurement": "inhibition at 10 µM", "setting": "[4]", "value": -0.83, "unit": "%"}, {"measurement": "IC50", "setting": "[2]; 10-dose assay, 3-fold serial dilution starting at 10 µM", "value": 1.8, "unit": "nM"}, {"measurement": "fold more potent than lapatinib over EGFR", "setting": "[2]; ratio of EGFR IC50 values", "value": 6, "unit": "fold"}, {"measurement": "fold more potent than staurosporine over EGFR", "setting": "[2]; ratio of EGFR IC50 values", "value": 50, "unit": "fold"}, {"measurement": "inhibition at 10 µM", "setting": "[2]", "value": 99, "unit": "%"}, {"measurement": "% Kinase Inhibition at 10 µM P38a/MAPK14", "setting": "[5]", "value": "almost no inhibitory activity; also recorded: poor to weak inhibitory activity"}, {"measurement": "inhibition at 10 µM", "setting": "[5]", "value": -33.3, "unit": "%"}, {"measurement": "% Kinase Inhibition at 10 µM KDR/VEGFR2", "setting": "[6]", "value": "almost no inhibitory activity; also recorded: poor to weak inhibitory activity"}, {"measurement": "inhibition at 10 µM", "setting": "[6]", "value": 10.3, "unit": "%"}, {"measurement": "% Kinase Inhibition at 10 µM c-MET", "setting": "[7]", "value": "almost no inhibitory activity; also recorded: poor to weak inhibitory activity"}, {"measurement": "inhibition at 10 µM", "setting": "[7]", "value": 19.3, "unit": "%"}]}
{"smiles": "COc1cc2ncnc(Nc3ccc4ncccc4c3)c2cc1OCCCCCn1ccnc1[N+](=O)[O-]", "note": "[Compound 6c, 7-Methoxy-6-((5-(2-nitro-1H-imidazol-1-yl)pentyl)oxy)-N-(quinolin-6-yl)quinazolin-4-amine]", "values": [{"measurement": "inhibition at 10 µM", "setting": "[1]", "value": 90, "unit": "%"}, {"measurement": "inhibition at 10 µM", "setting": "[2]", "value": 99.3, "unit": "%"}, {"measurement": "melting point", "value": "194 to 195", "unit": "°C"}]}
{"smiles": "COc1cc2ncnc(Nc3ccc4ncccc4c3)c2cc1OCCCCn1ccnc1[N+](=O)[O-]", "note": "[Compound 6b, 7-Methoxy-6-(4-(2-nitro-1H-imidazol-1-yl)butoxy)-N-(quinolin-6-yl)quinazolin-4-amine]", "values": [{"measurement": "inhibition at 10 µM", "setting": "[1]", "value": 78, "unit": "%"}, {"measurement": "inhibition at 10 µM", "setting": "[2]", "value": 99.3, "unit": "%"}, {"measurement": "melting point", "value": "201 to 202", "unit": "°C"}]}
{"smiles": "COc1cc2ncnc(Nc3ccc(OCc4ccccn4)c(Cl)c3)c2cc1OCCCn1ccnc1[N+](=O)[O-]", "note": "[Compound 6i, N-(3-Chloro-4-(pyridin-2-ylmethoxy)phenyl)-7-methoxy-6-(3-(2-nitro-1H-imidazol-1-yl)propoxy)quinazolin-4-amine]", "values": [{"measurement": "inhibition at 10 µM", "setting": "[1]", "value": 87.2, "unit": "%"}, {"measurement": "inhibition at 10 µM", "setting": "[2]", "value": 97.7, "unit": "%"}, {"measurement": "melting point", "value": "184 to 185", "unit": "°C"}]}
{"smiles": "COc1cc2ncnc(Nc3ccc4ncccc4c3)c2cc1OCCCCCCn1ccnc1[N+](=O)[O-]", "note": "[Compound 6d, 7-Methoxy-6-((6-(2-nitro-1H-imidazol-1-yl)hexyl)oxy)-N-(quinolin-6-yl)quinazolin-4-amine]", "values": [{"measurement": "inhibition at 10 µM", "setting": "[1]", "value": 79.7, "unit": "%"}, {"measurement": "inhibition at 10 µM", "setting": "[2]", "value": 99.1, "unit": "%"}, {"measurement": "melting point", "value": "176 to 177", "unit": "°C"}]}
{"smiles": "COc1cc2ncnc(Nc3ccc(OCc4ccccn4)c(Cl)c3)c2cc1OCCCCCn1ccnc1[N+](=O)[O-]", "note": "[Compound 6k, N-(3-Chloro-4-(pyridin-2-ylmethoxy)phenyl)-7-methoxy-6-((5-(2-nitro-1H-imidazol-1-yl)pentyl)oxy)quinazolin-4-amine]", "values": [{"measurement": "inhibition at 10 µM", "setting": "[1]", "value": 91.2, "unit": "%"}, {"measurement": "inhibition at 10 µM", "setting": "[2]", "value": 98.6, "unit": "%"}, {"measurement": "melting point", "value": "158 to 159", "unit": "°C"}]}
{"smiles": "COc1cc2ncnc(Nc3ccc(C#N)cc3)c2cc1OCCCCCCn1ccnc1[N+](=O)[O-]", "note": "[Compound 6h, 4-((7-Methoxy-6-((6-(2-nitro-1H-imidazol-1-yl)hexyl)oxy)quinazolin-4-yl)amino)benzonitrile]", "values": [{"measurement": "inhibition at 10 µM", "setting": "[1]", "value": 47.3, "unit": "%"}, {"measurement": "inhibition at 10 µM", "setting": "[2]", "value": 94.7, "unit": "%"}, {"measurement": "melting point", "value": "191 to 192", "unit": "°C"}]}
{"smiles": "COc1cc2ncnc(Nc3ccc(C#N)cc3)c2cc1OCCCCn1ccnc1[N+](=O)[O-]", "note": "[Compound 6f, 4-((7-Methoxy-6-(4-(2-nitro-1H-imidazol-1-yl)butoxy)quinazolin-4-yl)amino)benzonitrile]", "values": [{"measurement": "inhibition at 10 µM", "setting": "[1]", "value": 11.7, "unit": "%"}, {"measurement": "inhibition at 10 µM", "setting": "[2]", "value": 76.5, "unit": "%"}, {"measurement": "melting point", "value": "200 to 201", "unit": "°C"}]}
{"smiles": "COc1cc2ncnc(Nc3ccc(C#N)cc3)c2cc1OCCCCCn1ccnc1[N+](=O)[O-]", "note": "[Compound 6g, 4-((7-Methoxy-6-((5-(2-nitro-1H-imidazol-1-yl)pentyl)oxy)quinazolin-4-yl)amino)benzonitrile]", "values": [{"measurement": "inhibition at 10 µM", "setting": "[1]", "value": 43.1, "unit": "%"}, {"measurement": "inhibition at 10 µM", "setting": "[2]", "value": 91.8, "unit": "%"}, {"measurement": "melting point", "value": "196 to 197", "unit": "°C"}]}
{"smiles": "COc1cc2ncnc(Nc3ccc4ncccc4c3)c2cc1OCCCn1ccnc1[N+](=O)[O-]", "note": "[Compound 6a, 7-Methoxy-6-(3-(2-nitro-1H-imidazol-1-yl)propoxy)-N-(quinolin-6-yl)quinazolin-4-amine]", "values": [{"measurement": "inhibition at 10 µM", "setting": "[1]", "value": 74.7, "unit": "%"}, {"measurement": "inhibition at 10 µM", "setting": "[2]", "value": 98.8, "unit": "%"}, {"measurement": "melting point", "value": "249 to 250", "unit": "°C"}]}
